Consider 7 compounds from patent publication US5144017A, “Compounds that bind to digitalis receptor” (University of Manitoba, priority 1988, dated 1992).

The test system of data set [1] is Na/K-ATPase. To be noted: prior art; cited from earlier work.
The conditions of data set [2]: prior art; cited from earlier work.
Data set [3] has as its target cardiac glycoside (CG) binding site (digitalis receptor) of heart muscle. Briefly: 3H-ouabain radioligand binding assay (RBA). Also noted: species or system dog. Conditions: for IC50: read-out: binding / displacement potency in the 3H-ouabain RBA (IC50); for receptor potency relative to the aglycone: glucoside versus aglycone. How it is done:
An extensive study has been conducted by the inventors with respect to a wide series of steroids of the pregnane and androstane type. The potencies of these steroids were determined in a ^3 H-ouabain radioligand binding assay (RBA). Past experience has indicated to the inventors that the potency of the steroids to displace the labelled cardiac glycoside (i.e. ouabain) in the assay parallel their biological activity, that is their cardiac glycoside-like activity in the ability to inhibit Na/K-ATPase and elicit characteristic cellular response.
Binding studies were carried out in a ^3 H-ouabain radioligand binding assay (RBA) generally as described by Chow et al in Br. J. Pharmac. (1979), 67, 345 to 352. The results obtained are set forth in the Examples below:
A number of progesterone derivatives, having a 17α-acetoxy group and various functions at C-3 and C-6, interact at the cardiac glycoside (CG) binding site, as measured by the RBA with membranes from dog myocardium. Experimental values are given in the Table of FIG. 4 and structures in FIG. 3. The inventors have carried out structure-activity studies concerned with modification of the A and B rings as they influence potency in the RBA. As may be seen from the data, some progesterone derivatives with 5α- or 5β-stereochemistry show receptor competing activity. Among the congeners, highest potency is associated with the presence of C-4 or C-4,6-unsaturation and a C-6 substituent (CH3, Cl, Br). The C-3 function may be carbonyl, 3β-hydroxy, 3β-acetoxy or β-D-glucoside when associated with C-4 or C-4,6 unsaturation. In compounds with other substituents that promote activity, C-6α-substitution with --CH3, --Cl or --Br strongly enhance activity, --F, --OCH3, carbonyl or the unsubstituted compound promotes weak binding, and --OC2 H5, --OAc, --OCOOCH3 or --OH eliminates binding activity. Receptor interaction with the double bond at C-4, but not C-5, appears to be particularly important for binding.

Data set [4] deals with isolated heart muscle. Briefly: cardiostimulation in isolated heart muscle. The source says:
Differences in toxicity, i.e. the tolerance to increasingly-greater dosage levels before the onset of arrhythmia, exist among the various steroid glycosides.

For data set [5] the following is noted: prior art; cited from earlier work. This is another data set of the same source.
The conditions of data set [6]: prior art; cited from earlier work. This is another data set of the same source.
In data set [7] the test system is canine ventricular trabeculae muscle. The data set is described as follows: contractile (inotropic) response of canine ventricular trabeculae muscle.
Data set [8] is described as follows: intrarenal infusion: urine volume, sodium and potassium excretion. Type of data set: in vivo. The source says: The effects of an intrarenal infusion of ouabain and 14β-hydroxyprogesterone glucoside were compared. […] This marked natriuresis and absence of kaliuresis by the cardiotonic pregnane has practical clinical implications. […]
Where [9] appears, read: cardiac receptor of heart muscle, membranes from dog myocardium.
Where [10] appears, read: listed as β-D-glucoside of 14β-hydroxyprogesterone.

Where two headings read alike, the source gives them in different places.

As for `CC(=O)O[C@]1(C(C)=O)CC[C@H]2[C@@H]3C=C(Cl)C4=CC(=O)CC[C@]4(C)[C@H]3CC[C@@]21C` [compound 20, 17α-acetoxy-6-chloropregna-4,6-diene-3,20-dione, reference compound], the “affinity / potency at Na/K-ATPase” value in data set [1] is on record as “high affinity”. For the same compound, the “effect on cardiac contractility” value in data set [2] is “cardiodepression or decreased contractility”. The IC50 in data set [3] (setting [9]) was found to be 500 nM. Also, the “potency in the RBA relative to ouabain” value in data set [3] (fraction of the potency of ouabain) was 1/20.

As to `CC(=O)[C@H]1CC[C@]2(O)[C@@H]3CC[C@@H]4CC(=O)CC[C@]4(C)[C@H]3CC[C@]12C` [compound 3], the cardiostimulation result in data set [4] is listed as “cardiostimulant”. Besides, in data set [3] (setting [9]), the IC50 came to 60000 nM. For the same compound, the “binding activity in the RBA, in words” value in data set [3] (qualitative statement) is listed as “weaker than 14β-hydroxyprogesterone”.

As to `C[C@@H]1O[C@@H](O[C@H]2CC[C@@]3(C)[C@H](CC[C@@H]4[C@@H]3CC[C@]3(C)[C@@H]([C@@H](C)O)CC[C@]43N)C2)[C@H](O)[C@H](O)[C@H]1O` [3β-rhamnosyloxy-14β-amino-5β-pregnane-20β-ol], the “potency compared with the cardiac glycosides” value in data set [5] is “as potent as the cardiac glycosides”. In addition, in data set [6], the “effect on cardiac contractility compared with digoxin” value is listed as “superior, in terms of tolerance to higher dosage”.

Turning to `CC(=O)[C@H]1CC[C@]2(O)[C@@H]3CCC4=C[C@@H](O[C@@H]5O[C@H](CO)[C@@H](O)[C@H](O)[C@H]5O)CC[C@]4(C)[C@H]3CC[C@]12C` [compound 8], the inotropic response entry in data set [7] (dose dependent) is “positive inotropic response”. For the same compound, in data set [7] (during peak inotropic response and subsequent depression), the “after contractions on rapid electrical stimulation (digitalis-like toxic response)” value is “possible to elicit spontaneous after contraction(s)”. The “contractile response at high concentrations” value in data set [7] (high concentrations) was “biphasic contractile response, an initial increase followed by a decrease”. In addition, the urine volume result in data set [8] is reported as “increased urine volume”. The values for the potassium excretion entry in data set [8] (listed as 14β-OHP-glu) and in data set [8] (setting [10]) were “no influence on potassium excretion” and “little effect on potassium excretion”, respectively. In addition, the figures for the sodium excretion result in data set [8] (listed as 14β-OHP-glu) and in data set [8] (setting [10]) were “increased sodium excretion significantly” and “increased sodium excretion”, respectively. Also, the IC50 in data set [3] (setting [9]) was found to be 1800 nM. Moreover, the “receptor potency relative to the aglycone” value is on record as “about 10 times” in data set [3] (listed as 14β-OHP-glu) and “approximately ten” in data set [3] (setting [10]).

For `CC(=O)O[C@]1(C(C)=O)CC[C@H]2[C@@H]3C[C@H](C)C4=C[C@@H](O[C@@H]5O[C@H](CO)[C@@H](O)[C@H](O)[C@H]5O)CC[C@]4(C)[C@H]3CC[C@@]21C` [β-D-glucoside, 17α-Acetoxy-6α-methyl-3-β-[β-D-(glucopyranosyl)oly]-pregn-4-en-20-one], in data set [8], the potassium excretion entry is listed as “potassium sparing” and the sodium excretion entry was “sodium excreting”. Further, the IC50 in data set [3] (setting [9]) was 3300 nM.

With `C[C@@H]1O[C@@H](O[C@H]2C[C@@H](O)[C@]3(CO)[C@H]4[C@H](O)C[C@]5(C)[C@@H](C6=CC(=O)OC6)CC[C@]5(O)[C@@H]4CC[C@]3(O)C2)[C@H](O)[C@H](O)[C@H]1O` [ouabain, reference compound], in data set [8], the potassium excretion entry is “marked increase in potassium excretion”, the sodium excretion entry is on record as “little or no change in sodium excretion” and the urine volume entry is listed as “increased urine volume”. In data set [3] (values in nM), the IC50 was found to be 14 nM.

As to `CC(=O)[C@H]1CC[C@]2(O)[C@@H]3CCC4=CC(=O)CC[C@]4(C)[C@H]3CC[C@]12C` [compound 6, 14β-hydroxyprogesterone], the cardiostimulation result in data set [4] is “elicits cardiostimulation”. Also, the IC50 in data set [3] (setting [9]) stood at 10000 nM.
